Experimental data as given in US20030232871A1 (priority 2002, published 2003).
Entries after “also recorded” stand apart in the source; their conditions may differ.

Experiments:
[1] = Moisture sorption (Dynamic Vapor Water Sorption analyzer); type: physicochemical; conditions: 25° C.; for hygroscopicity compared with Form A: up to about 80% RH
Description: Moisture sorption data were collected at 25° C. from 0% to 80% RH using a Surface Measurement Systems Dynamic Vapor Water Sorption analyzer. The equilibrium window was for a dm/dT of 0.0003 or a maximum time of 120 minutes.

[2] = True density by helium pycnometry; type: physicochemical
[3] = Thermodynamic parameters from eutectic melting data (ΔG−T and ΔG/T−1/T plots); type: physicochemical; conditions: for Tt (transition temperature): LT form to HT = Form A, calculated as Tt=ΔH/ΔS; for ΔH / ΔS: transition of low temperature form (LT) to HT = Form A, derived from eutectic melting data
Description: Based on the Heat of Transition Rule both Forms B and E are believed to be enantiotropically related to Form A, meaning there is a change in the stability relationship between the forms around a transition temperature Tt. Determination of Tt for Forms B and E with respect to Form A was performed by the use of eutectic melting data. Eutectics were formed between a reference compound (RC) and each of Forms A, B and E of parecoxib sodium. Subsequently heat of fusion data were used to derive the free energy difference between the crystal forms at the eutectic temperature (equation I): xej(Gj-Gi)Tei=Δ[…])]} (equation I) wherein xej and xei are the mole fraction of crystal forms j and i respectively in the eutectic; (Gj-Gi) is the free energy difference between crystal forms i and j at Tei; ΔHmej and ΔHmei are the enthalpy of eutectic melting of crystal forms j and i respectively; Tei and Tej are the temperatures of eutectic melting of crystal forms i and j respectively; ΔCpij is the heat capacity change across the eutectic melt; and R is the ideal gas constant. […] By definition, the free energy difference between crystal forms is zero at the transition temperature. The transition temperature given in Table 5 above was calculated according to equation II: Tt=ΔH/ΔS (equation II)

[4] = Solution calorimetry (heat of solution); type: physicochemical; conditions: LT form / Form A pair
COX-1 = COX-1 (Homo sapiens, UniProt P23219); conditions: background statement; cited from earlier work
Chain of COX-1 (P23219 24-599): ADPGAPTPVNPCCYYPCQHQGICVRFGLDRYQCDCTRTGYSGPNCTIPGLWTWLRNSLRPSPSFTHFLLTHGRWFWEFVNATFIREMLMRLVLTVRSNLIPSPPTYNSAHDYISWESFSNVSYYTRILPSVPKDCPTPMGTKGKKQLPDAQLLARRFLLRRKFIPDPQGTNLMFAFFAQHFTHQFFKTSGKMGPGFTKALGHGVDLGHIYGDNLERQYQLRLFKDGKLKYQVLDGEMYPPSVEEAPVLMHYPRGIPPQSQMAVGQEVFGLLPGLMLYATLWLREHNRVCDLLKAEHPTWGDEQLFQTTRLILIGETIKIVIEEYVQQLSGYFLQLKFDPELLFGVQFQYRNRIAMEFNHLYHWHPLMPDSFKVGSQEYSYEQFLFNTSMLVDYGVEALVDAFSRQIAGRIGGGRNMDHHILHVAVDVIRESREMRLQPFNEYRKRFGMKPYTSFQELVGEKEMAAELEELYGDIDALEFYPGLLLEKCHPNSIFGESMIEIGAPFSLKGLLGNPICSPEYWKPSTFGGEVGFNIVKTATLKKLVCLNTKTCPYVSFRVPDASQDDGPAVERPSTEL

Row | Compound | moisture sorbed ([1]; 0-60% RH range) | behaviour above 60% RH ([1]; above 60% RH) | true density [2] | hygroscopicity compared with Form A [1] | Tt (transition temperature) [3] | ΔH [3] | ΔS [3] | ΔH from heat of solution data [4] | in vitro inhibitory activity against COX-1 (COX-1)
1 | CCC(=O)[N-]S(=O)(=O)c1ccc(-c2c(-c3ccccc3)noc2C)cc1.[Na+] [Form A, parecoxib sodium] | less than 1% | deliquesced; also recorded: greater tendency to sorb water and even to deliquesce | 1.34 ± 0.01 g/mL | – | – | – | – | – | –
2 | CCC(=O)[N-]S(=O)(=O)c1ccc(-c2c(-c3ccccc3)noc2C)cc1.[Na+] [Form B, parecoxib sodium] | – | – | 1.46 ± 0.01 g/mL | less hygroscopic than Form A | 163.3 °C | 3.975 kcal/mol | 38.1 J/mole/K | 3.666 kcal/mol | –
3 | CCC(=O)[N-]S(=O)(=O)c1ccc(-c2c(-c3ccccc3)noc2C)cc1.[Na+] [Form E, parecoxib sodium] | – | – | 1.42 ± 0.01 g/mL | less hygroscopic than Form A | 163.9 °C | 4.099 kcal/mol | 39.2 J/mole/K | 4.288 kcal/mol | –
4 | CCC(=O)NS(=O)(=O)c1ccc(-c2c(-c3ccccc3)noc2C)cc1 [Parecoxib] | – | – | – | – | – | – | – | – | weak
5 | Cc1onc(-c2ccccc2)c1-c1ccc(S(N)(=O)=O)cc1 [valdecoxib] | – | – | – | – | – | – | – | – | weak
